Experimental data from US6541515B2, “HIV integrase inhibitors” (Merck & Co., Inc., priority 2000, dated 2003).

Target: recombinant integrase (HIV integrase) (Human immunodeficiency virus type 1 group M subtype B, UniProt P04585)
Assay: HIV integrase assay: strand transfer catalyzed by recombinant integrase
Type: biochemical
Conditions: strand transfer activity
Method: HIV Integrase Assay: Strand Transfer Catalyzed by Recombinant Integrase and Preintegration Complexes
Assays for the strand transfer activity of integrase can be conducted according to Wolfe et al., J. Virol. 1996, 70: 1424 and Farnet and Bushman, Cell 1997, 88: 483 for recombinant integrase and preintegration complexes, respectively, hereby incorporated by reference. Compound A was tested in the recombinant integrase assay and found to have an IC50 of about 20 micromolar.

## CCCCC(C)C1=C(O)C(=O)C2CC(C)CC(C(=O)O)C2C1(C)C(=O)CCO (stereo not shown) [Compound A]
  IC50: ~20 µM
